Consider 86 compounds from a melting point compilation (Tetko et al.).

As to `N#Cc1cc(F)c(C(=O)O)c(F)c1`, the melting point lay in the range of 189 to 191 °C. The figure for `O=C(O)c1ccc2c(=O)[nH]c(S)nc2c1` is 379 to 381 °C; for `Cc1ccc(C(=O)CC#N)c(C)c1` it is 78 to 80 °C. Then `CC(CC(=N)N)NC(=O)OC(C)(C)C` (stereo unspecified), with 91 to 93 °C; and `COc1cc(C=CC(=O)O)ccc1OCC#N`, with 164 to 166 °C. The figure for `O=C(O)C1CC(=O)N(c2cccc(C(F)(F)F)c2)C1` (stereo unspecified) is 102 to 104 °C; for `NS(=O)(=O)N1CCCc2ccccc21` it is 125 to 127 °C; for `Cc1ccc(Nc2nnc(S)s2)cc1Cl` it is 210 to 212 °C.

For the compound `COc1ccc(Cl)cc1-c1cc(N)[nH]n1`, the melting point is 126 to 128 °C. Then `Nc1nonc1-c1cccc(Cl)c1`, with 133 to 135 °C. Then `CC(C)(C)c1cc(N)n(CCO)n1`, with 102 to 104 °C; and `CC(C(=O)O)S(=O)(=O)Cc1cccc(Br)c1` (stereo unspecified), with 109 to 111 °C; and `CC(C)C[C@H](NC(=O)OC(C)(C)C)C(=O)O`, with 87 to 89 °C. Then `CCOC(=O)c1c(C)oc2cc3c(C(=O)OCC)c(C)oc3cc12`, with 187 to 189 °C; and `Cc1cc(O)nc(NN)n1`, with 213 to 215 °C. Consider `O=C(O)C1(c2ccc(Br)cc2)CCCC1`, for which the melting point was in the range of 176 to 178 °C. The figure for `O=C(Nc1ccccc1F)C1CSCN1` (stereo unspecified) is 97 to 99 °C; for `N#Cc1cc2ccccc2nc1Br` it is 179 to 181 °C. Then `NCc1csc(CNC(=O)c2ccccc2)n1`, with 84 to 86 °C; and `O=C(Nc1ccc(S(=O)(=O)Cl)cc1)C(F)(F)F`, with 152 to 154 °C. The figure for `Cc1cc(C(=O)CCl)c(C)n1-c1ccc(OC(F)F)cc1` is 83 to 87 °C; for `O=C1Nc2cc(OC(F)(F)F)ccc2C1=O` it is 183 to 185 °C; for `CC(C)(C)OC(=O)N1CCCC1CC(=O)O` (stereo unspecified) it is 107 to 109 °C. Compound `Nc1cccc(OCCc2ccccc2)c1` yielded a melting point of 139 to 141 °C. The figure for `N#CCC(=O)Nc1ccc(S(N)(=O)=O)cc1` is 215 to 217 °C; for `Cn1cc(C#N)c(=O)n(C)c1=O` it is 154 to 156 °C. As for `CC(C)(C)OC(=O)N1CCN(c2ccc(Cl)nn2)CC1`, the melting point lay in the range of 162 to 164 °C.

Turning to `CN(C)c1ccc(C(N)=O)cc1`, the melting point was 207 to 209 °C. Then `NCC(=O)Nc1cccc(F)c1`, with 82 to 84 °C. `O=Cc1ccc(-c2ccccc2F)o1` gave a melting point of 66 to 68 °C.

Compound `ClCc1nc(-c2ccccc2Cl)no1` yielded a melting point of 37 to 39 °C.

Compound `CON(C)S(=O)(=O)c1ccc(Cl)c(C(=O)O)c1` showed a melting point of 184 to 186 °C.

Take `Fc1ccc(-c2ccn[nH]2)cc1Cl`: the melting point was in the range of 109 to 111 °C.

The compound `CCn1c(C)cs/c1=N\c1ccc(Cl)cc1` gave a melting point of 190 to 192 °C. Consider `CC(C)Cn1c(N)c(C(=O)CCl)c(=O)n(C)c1=O`, for which the melting point lay within 104 to 106 °C.

Take `NC(=O)c1sc2ccccc2c1N`: the melting point lay within 217 to 219 °C. With `COc1ccc(Br)c(S(N)(=O)=O)c1`, the melting point was 119 to 121 °C. The figure for `CC1CCc2c(sc3nc(CCl)[nH]c(=O)c23)C1` (stereo unspecified) is 180 to 182 °C; for `Nc1ccc(-c2cccc(C(F)(F)F)c2)cc1` it is 65 to 67 °C.

`Cc1cccc2ncc(C=O)n12`: the melting point fell in the range of 128 to 130 °C.

`Cc1nccn1Cc1ccc(N)cc1` displayed a melting point of 159 to 161 °C. Then `Cc1ncc(C(=O)O)c(=O)[nH]1`, with 310 to 312 °C. Then `O=C(O)C1CCCN1S(=O)(=O)c1ccc(Cl)s1` (stereo unspecified), with 44 to 46 °C; and `O=C(CC1CCCCC1)NC1CCC(C(=O)O)CC1` (stereo unspecified), with 136 to 138 °C.

Compound `O=C1CC(c2ccccc2)=NN1c1ccccc1` displayed a melting point of 138 to 140 °C. The figure for `CCN(CC)S(=O)(=O)c1ccc(C)c(N)c1` is 108 to 112 °C. As to `CC(O)CS(=O)(=O)c1ccccc1` (stereo unspecified), the melting point was 46 to 48 °C. Then `O=Cc1ccc(OCC(=O)c2ccccc2)cc1`, with 115 to 119 °C; and `CN1CCN(S(=O)(=O)c2ccc(Cl)c(N)c2)CC1`, with 103 to 107 °C; and `O=C1CS(=O)CCN1` (stereo unspecified), with 119 to 121 °C. Then `Fc1cccc(F)c1-n1c(S)nc2ccccc21`, with 255 to 257 °C.

Regarding `Cn1c(=O)[nH]cc(C(=O)O)c1=O`, the melting point fell in the range of 233 to 235 °C. The figure for `O=C(O)CCCCCc1cccs1` is 43 to 45 °C; for `CCCCN(c1ccccc1)S(=O)(=O)c1cccc(C(=O)O)c1` it is 161 to 163 °C; for `NC(C(=O)O)(c1ccccc1F)C(F)(F)F` (stereo unspecified) it is 113 to 115 °C.

The compound `O=C(O)c1cc(NCc2ccccc2)nc2ccccc12` showed a melting point of 339 to 341 °C. The figure for `O=[N+]([O-])c1cc([N+](=O)[O-])c(Br)cc1F` is 92 to 94 °C; for `N#Cc1ccc(NC(=O)C(=O)O)cc1Cl` it is 203 to 205 °C. The figure for `O=C1c2ccccc2C(=O)N1CCCCCCO` is 57 to 59 °C; for `CS(=O)(=O)c1ccc(CCN)cc1` it is 76 to 78 °C; for `CN(C)S(=O)(=O)c1cc(NC(=O)CCl)ccc1Cl` it is 183 to 185 °C.

`Cc1c(Cl)ccc2ccc(Cl)nc12` yielded a melting point of 92 to 94 °C.

For `O=C(O)c1ccccc1SCC(=O)N1CCCC1`, the melting point was 115 to 117 °C.

As for `O=C(O)c1ccc(Oc2ccc(Br)cc2)c(F)c1`, the melting point was in the range of 251 to 253 °C. The figure for `CC(C)(C)OC(=O)NC(C(=O)O)c1cccc(Cl)c1` (stereo unspecified) is 128 to 130 °C; for `Cc1cc(C=O)c(C)n1-c1nccs1` it is 43 to 45 °C; for `O=C(CBr)c1ccc2c(c1)CCO2` it is 72 to 74 °C. Then `O=C(c1ccc(Br)cc1)C1CCOCC1`, with 99 to 101 °C; and `COc1ccc2[nH]c3c(c2c1)CCC3`, with 119 to 121 °C. The figure for `CC(=O)c1c(C)[nH]c(C(=O)O)c1C` is 205 to 207 °C. In turn, `NS(=O)(=O)c1cc(Cl)ccc1Cl` registered a melting point of 179 to 181 °C. Then `CC1COCCN1c1ccc(N)cc1` (stereo unspecified), with 89 to 91 °C; and `CCOC(=O)c1cnn2c3c(cnc12)CCOC3=O`, with 246 to 248 °C.

`N#Cc1ccc(Cl)c(N)c1`: the melting point lay within 87 to 91 °C. With `COC(=O)c1cc(=O)c2cc(Cl)ccc2[nH]1`, the melting point fell in the range of 179 to 181 °C.

For `CC1CC(=O)c2c(O)ccc(Cl)c21` (stereo unspecified), the melting point was 55 to 57 °C.

Compound `NC(c1nnn[nH]1)C1CC1` (stereo unspecified) gave a melting point of 233 to 235 °C. Turning to `Nc1cc(-c2cccc(Cl)c2)nn1CCO`, the melting point was in the range of 146 to 148 °C.

Consider `Cc1cc(C)c2cc(C(=O)O)sc2n1`, for which the melting point fell in the range of 198 to 200 °C. Then `CN(C(=O)c1cccc(N)c1)c1ccccc1`, with 144 to 146 °C. The figure for `NS(=O)(=O)c1ccccc1O` is 135 to 137 °C. The figure for `O=C(O)CCNC(=O)Nc1ccccc1` is 173 to 175 °C; for `Cc1ccccc1C(=O)NC1CCNCC1` it is 129 to 131 °C; for `Nc1ccc(N2CCCCC2)c(Cl)c1` it is 53 to 55 °C.

Compound `Cc1cc(-c2nc3cc(F)ccc3n2C)ccc1N` gave a melting point of 174 to 176 °C.

As to `CC(C)(CCC(=O)O)NC(=O)OC(C)(C)C`, the melting point fell in the range of 91 to 93 °C.

Broadly, the melting point is the temperature, or range, at which the solid turns liquid.
